ChEMBL document CHEMBL1201862, “PubChem BioAssay data set” (2004)
Active and inactive are the calls of the source.

Key:
[1] = inhibitors of Bluetongue virus cytopathic effect, confirmation, arbovirus, BSR cells (AID 1250); format: functional;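 also: protection from viral cytopathic effect measured as cell viability by ATP luminescence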
[2] = target: T1, Neuropeptide Y receptor type 1 (Homo sapiens, UniProt P25929); format: functional;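 also: HEK293 cells with a CNG channel challenged with NPY then isoproterenol; potency as antagonist that reverses NPY suppression of cAMP signal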
T1 sequence (P25929 whole entry): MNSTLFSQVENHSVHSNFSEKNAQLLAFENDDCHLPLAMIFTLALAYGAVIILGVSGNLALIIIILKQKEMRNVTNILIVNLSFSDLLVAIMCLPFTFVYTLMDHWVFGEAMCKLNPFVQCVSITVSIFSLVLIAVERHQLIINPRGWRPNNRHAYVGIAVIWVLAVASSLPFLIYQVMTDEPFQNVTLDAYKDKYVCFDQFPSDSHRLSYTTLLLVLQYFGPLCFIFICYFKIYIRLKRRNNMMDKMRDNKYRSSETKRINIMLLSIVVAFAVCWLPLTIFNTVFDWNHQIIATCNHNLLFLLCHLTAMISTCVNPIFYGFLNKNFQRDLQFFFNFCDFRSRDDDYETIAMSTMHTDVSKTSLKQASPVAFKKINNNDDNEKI

[3] = target: Luciferin 4-monooxygenase (Photinus pyralis, UniProt P08659); assay: firefly luciferase enzyme inhibitors, dose response, biochemical, luminescence (AID 1891)
Luciferin 4-monooxygenase, sequence (P08659 whole entry): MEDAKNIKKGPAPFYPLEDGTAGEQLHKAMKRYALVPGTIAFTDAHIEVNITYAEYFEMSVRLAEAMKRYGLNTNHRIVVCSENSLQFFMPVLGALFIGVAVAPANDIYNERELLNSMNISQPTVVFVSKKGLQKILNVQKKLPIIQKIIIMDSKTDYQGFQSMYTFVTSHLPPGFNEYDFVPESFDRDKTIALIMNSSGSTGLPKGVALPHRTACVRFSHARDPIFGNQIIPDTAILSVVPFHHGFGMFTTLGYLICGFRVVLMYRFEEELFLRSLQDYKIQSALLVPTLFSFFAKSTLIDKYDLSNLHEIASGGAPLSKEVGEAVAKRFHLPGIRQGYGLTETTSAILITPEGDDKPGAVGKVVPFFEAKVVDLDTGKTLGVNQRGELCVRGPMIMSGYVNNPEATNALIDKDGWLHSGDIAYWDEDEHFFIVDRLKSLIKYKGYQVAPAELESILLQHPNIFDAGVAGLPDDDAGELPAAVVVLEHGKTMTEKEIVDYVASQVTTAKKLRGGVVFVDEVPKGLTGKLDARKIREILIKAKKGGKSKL

[4] = Luminescence Cell-Based Dose Confirmation HTS to Identify Inhibitors of Platelet Dense Granule Release. [Related pubchem assays: 1663 (Primary HTS), 1678 (Summary of Project)]; format: functional
[5] = target: T2, Neuropeptide Y receptor type 2 (Homo sapiens, UniProt P49146); format: functional, cell-based;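 also: HEK293 cells expressing the receptor and a CNG channel; stimulus was NPY near EC95 followed by isoproterenol to raise cAMP; antagonist potency measured as restoring cAMP signal that NPY suppresses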
T2 sequence (P49146 whole entry): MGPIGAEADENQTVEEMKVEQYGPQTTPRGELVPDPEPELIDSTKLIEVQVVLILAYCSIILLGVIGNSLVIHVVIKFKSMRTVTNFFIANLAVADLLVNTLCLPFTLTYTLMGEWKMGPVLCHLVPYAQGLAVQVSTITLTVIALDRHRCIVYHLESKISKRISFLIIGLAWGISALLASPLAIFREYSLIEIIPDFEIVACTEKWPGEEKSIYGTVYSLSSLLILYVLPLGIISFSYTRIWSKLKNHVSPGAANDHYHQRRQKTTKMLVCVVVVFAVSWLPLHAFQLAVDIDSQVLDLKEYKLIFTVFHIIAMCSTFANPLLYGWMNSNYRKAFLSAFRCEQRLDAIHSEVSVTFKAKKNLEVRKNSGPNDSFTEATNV

[6] = target: T3, Apoptotic protease-activating factor 1 (Homo sapiens, UniProt O14727); format: functional
T3 sequence (O14727 whole entry): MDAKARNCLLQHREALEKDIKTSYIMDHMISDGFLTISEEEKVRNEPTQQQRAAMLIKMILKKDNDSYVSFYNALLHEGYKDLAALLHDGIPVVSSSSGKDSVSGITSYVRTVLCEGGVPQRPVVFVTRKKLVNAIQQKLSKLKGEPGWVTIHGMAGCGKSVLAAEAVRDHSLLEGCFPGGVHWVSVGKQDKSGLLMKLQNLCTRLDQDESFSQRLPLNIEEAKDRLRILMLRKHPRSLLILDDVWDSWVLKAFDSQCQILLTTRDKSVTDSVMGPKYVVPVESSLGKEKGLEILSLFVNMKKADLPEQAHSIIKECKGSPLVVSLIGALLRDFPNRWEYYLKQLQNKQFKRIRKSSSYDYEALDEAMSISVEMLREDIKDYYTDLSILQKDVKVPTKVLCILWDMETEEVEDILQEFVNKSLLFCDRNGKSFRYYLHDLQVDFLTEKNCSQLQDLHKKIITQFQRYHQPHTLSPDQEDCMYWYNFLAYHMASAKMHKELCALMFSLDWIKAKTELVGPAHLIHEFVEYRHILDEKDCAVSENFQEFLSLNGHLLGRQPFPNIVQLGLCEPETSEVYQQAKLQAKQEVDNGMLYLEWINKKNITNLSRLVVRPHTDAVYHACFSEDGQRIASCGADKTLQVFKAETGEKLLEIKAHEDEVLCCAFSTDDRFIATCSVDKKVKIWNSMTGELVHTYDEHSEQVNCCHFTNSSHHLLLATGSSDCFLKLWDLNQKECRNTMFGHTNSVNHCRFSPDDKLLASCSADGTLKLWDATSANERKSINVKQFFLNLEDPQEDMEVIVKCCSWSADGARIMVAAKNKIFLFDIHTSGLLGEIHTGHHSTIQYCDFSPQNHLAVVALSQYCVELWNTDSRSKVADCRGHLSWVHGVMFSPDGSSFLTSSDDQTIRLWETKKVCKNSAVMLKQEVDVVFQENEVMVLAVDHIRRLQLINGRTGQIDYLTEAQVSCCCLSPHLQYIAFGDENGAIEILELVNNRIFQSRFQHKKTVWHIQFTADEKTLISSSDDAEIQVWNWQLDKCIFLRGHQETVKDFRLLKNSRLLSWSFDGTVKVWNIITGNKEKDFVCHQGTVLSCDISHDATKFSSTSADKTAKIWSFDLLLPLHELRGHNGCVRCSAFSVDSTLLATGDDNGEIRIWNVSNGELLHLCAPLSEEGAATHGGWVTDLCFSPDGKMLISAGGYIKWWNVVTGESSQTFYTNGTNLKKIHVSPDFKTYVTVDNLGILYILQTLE

H9c2 = assay: cells; format: functional, cell-based; conditions: Rattus norvegicus, H9c2, Myocardium
Aspartyl aminopeptidase = target: T4, Aspartyl aminopeptidase (Plasmodium falciparum 3D7, UniProt Q8I2J3); assay: Counterscreen for inhibitors of M1 and M17 aminopeptidases: QFRET-based biochemical high throughput dose response assay for inhibitors of the Plasmodium falciparum M18 Aspartyl Aminopeptidase (PFM18AAP). [Related PubChem assays: 1619 (Screening assay (M17LAP inhibitors).), 1445 (Screening assay (M1AAP inhibitors).)]
T4 sequence (Q8I2J3 whole entry): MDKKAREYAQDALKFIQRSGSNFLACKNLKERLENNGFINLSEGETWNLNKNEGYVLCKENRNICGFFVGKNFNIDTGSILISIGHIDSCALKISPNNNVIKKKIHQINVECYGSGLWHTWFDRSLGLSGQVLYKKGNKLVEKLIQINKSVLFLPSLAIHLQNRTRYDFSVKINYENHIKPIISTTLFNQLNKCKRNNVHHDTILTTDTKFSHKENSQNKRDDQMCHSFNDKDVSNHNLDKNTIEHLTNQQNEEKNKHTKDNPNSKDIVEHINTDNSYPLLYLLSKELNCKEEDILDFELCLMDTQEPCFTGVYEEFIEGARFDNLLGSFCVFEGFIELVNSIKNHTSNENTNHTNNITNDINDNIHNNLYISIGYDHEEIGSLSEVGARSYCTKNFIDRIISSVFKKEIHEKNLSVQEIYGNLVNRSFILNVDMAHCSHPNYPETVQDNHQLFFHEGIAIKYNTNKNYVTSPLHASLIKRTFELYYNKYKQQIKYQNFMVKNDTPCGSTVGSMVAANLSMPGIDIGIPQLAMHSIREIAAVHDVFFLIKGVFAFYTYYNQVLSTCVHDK

Aminopeptidase N = target: T5, Aminopeptidase N (Plasmodium falciparum FcB1/Columbia, UniProt O96935); assay: P. falciparum M1AAP inhibitors, biochemical, fluorogenic H-Leu-NHMec substrate, 1536-well (AID 1445); design: species or system Plasmodium falciparum 3D7, 3D7
T5 sequence (O96935 whole entry): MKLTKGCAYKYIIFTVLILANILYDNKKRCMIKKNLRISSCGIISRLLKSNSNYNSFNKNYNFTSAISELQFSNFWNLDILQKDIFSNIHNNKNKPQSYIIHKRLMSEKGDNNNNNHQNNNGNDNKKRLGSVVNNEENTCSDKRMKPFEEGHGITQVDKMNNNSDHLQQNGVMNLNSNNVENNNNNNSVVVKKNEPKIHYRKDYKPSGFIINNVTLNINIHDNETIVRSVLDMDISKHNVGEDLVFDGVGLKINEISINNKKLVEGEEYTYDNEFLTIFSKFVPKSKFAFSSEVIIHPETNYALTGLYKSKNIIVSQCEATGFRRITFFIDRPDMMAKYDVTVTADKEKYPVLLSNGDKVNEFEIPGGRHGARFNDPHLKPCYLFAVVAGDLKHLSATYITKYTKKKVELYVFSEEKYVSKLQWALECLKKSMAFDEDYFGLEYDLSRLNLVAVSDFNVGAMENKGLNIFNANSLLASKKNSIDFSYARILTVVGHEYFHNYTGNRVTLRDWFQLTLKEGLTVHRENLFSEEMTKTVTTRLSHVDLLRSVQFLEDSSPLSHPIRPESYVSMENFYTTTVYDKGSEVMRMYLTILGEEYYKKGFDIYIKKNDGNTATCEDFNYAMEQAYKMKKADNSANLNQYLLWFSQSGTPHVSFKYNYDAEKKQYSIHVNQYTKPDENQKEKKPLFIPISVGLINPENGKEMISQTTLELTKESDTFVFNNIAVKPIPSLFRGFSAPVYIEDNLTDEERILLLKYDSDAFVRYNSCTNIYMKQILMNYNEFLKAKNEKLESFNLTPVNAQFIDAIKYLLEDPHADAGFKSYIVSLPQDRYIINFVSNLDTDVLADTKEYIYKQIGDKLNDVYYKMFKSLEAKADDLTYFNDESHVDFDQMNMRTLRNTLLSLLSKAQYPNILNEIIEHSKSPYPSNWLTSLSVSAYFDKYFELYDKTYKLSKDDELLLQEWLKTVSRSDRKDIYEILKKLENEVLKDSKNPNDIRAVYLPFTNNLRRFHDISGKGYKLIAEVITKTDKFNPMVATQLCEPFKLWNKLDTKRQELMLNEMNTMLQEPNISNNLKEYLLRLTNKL

Procathepsin L = Procathepsin L (Homo sapiens, UniProt P07711); assay: cathepsin L inhibitors, dose response, counter-screen for M1/M17 aminopeptidase inhibitor project, biochemical, QFRET, 1536-well (AID 2214)
Procathepsin L, sequence (P07711 whole entry): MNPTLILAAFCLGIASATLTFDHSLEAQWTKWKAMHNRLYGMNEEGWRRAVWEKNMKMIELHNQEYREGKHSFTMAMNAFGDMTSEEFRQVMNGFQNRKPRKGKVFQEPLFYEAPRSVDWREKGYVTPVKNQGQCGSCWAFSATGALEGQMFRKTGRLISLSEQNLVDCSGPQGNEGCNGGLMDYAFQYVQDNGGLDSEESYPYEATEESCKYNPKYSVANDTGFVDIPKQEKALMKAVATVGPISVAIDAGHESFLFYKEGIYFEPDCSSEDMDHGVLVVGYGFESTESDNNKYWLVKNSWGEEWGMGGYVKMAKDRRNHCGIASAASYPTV

Leucine aminopeptidase = target: T6, Leucine aminopeptidase (Plasmodium falciparum 3D7, UniProt Q8IL11); assay: P. falciparum M17LAP inhibitors, primary screen, biochemical, fluorogenic H-Leu-NHMec substrate, 1536-well (AID 1619); format: functional
T6 sequence (Q8IL11 whole entry): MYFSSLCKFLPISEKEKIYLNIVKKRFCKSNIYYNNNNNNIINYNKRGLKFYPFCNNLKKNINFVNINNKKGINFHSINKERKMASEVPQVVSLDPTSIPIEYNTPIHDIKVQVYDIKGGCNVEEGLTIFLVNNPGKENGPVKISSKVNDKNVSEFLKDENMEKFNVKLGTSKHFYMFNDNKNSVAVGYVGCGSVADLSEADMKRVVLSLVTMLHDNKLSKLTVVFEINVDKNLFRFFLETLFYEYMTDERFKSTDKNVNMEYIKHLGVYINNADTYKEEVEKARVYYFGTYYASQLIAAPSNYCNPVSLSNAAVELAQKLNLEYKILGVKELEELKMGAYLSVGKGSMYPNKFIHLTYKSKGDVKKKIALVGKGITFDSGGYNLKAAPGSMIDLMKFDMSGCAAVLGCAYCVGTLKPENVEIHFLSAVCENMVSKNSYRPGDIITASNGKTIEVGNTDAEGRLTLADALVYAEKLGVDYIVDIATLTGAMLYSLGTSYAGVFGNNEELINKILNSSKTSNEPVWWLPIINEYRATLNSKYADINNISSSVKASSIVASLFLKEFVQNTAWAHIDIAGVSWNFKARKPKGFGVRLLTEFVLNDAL

[7] = test system: Streptococcus sp. 'group A'; assay: growth inhibition of control SK(-) GAS strain, dose response, counter-screen for streptokinase expression inhibitor project, luminescence, kanamycin, BacTiterGlo, confirmation (AID 1900); format: functional, organism-based
Streptokinase A = target: T7, Streptokinase A (Streptococcus pyogenes serotype M1, UniProt P10520); assay: S. pyogenes streptokinase expression inhibitors, potency, dose response, plasminogen activation absorbance, OD405 (AID 1914); format: functional, Streptococcus pyogenes M1 GAS;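 also: secreted streptokinase activity via plasminogen activation per viability signal from cell pellet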
T7 sequence (P10520 whole entry): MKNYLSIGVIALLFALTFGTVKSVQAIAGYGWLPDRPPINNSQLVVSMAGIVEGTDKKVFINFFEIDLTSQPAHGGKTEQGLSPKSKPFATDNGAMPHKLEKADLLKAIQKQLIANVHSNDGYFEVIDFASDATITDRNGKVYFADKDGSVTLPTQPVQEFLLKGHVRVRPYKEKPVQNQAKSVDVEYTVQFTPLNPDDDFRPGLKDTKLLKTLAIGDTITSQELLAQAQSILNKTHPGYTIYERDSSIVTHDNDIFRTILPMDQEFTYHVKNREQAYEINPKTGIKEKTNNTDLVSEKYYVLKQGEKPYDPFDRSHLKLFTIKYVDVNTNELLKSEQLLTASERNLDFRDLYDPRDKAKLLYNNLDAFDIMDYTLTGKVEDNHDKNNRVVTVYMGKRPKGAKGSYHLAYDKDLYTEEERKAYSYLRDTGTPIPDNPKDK

Streptococcus = assay: Group A Streptococcus viability loss, dose response, counter-screen for streptokinase expression inhibitor project, luminescence, BacTiterGlo (AID 1915); format: functional, organism-based;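 also: potency for reduction of bacterial viability or growth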
[8] = cytotoxicity in HPDE-C7 cells, cell-based, fluorescence, HTS (AID 430); format: functional; conditions: Homo sapiens
[9] = cytotoxicity in KRAS-transformed pancreatic duct cells, primary screen, cell-based, fluorescence, HTS (AID 431); format: functional; conditions: Homo sapiens;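 also: cell line used: HPDE-C7K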

## COc1ccc(-c2cc(-c3ccc(Br)cc3)nc3ncnn23)cc1OC
[1]
  IC50: 52.8 µM (active)

## Cc1ccc(-c2nn3c(C)nnc3c3ccccc23)cc1S(=O)(=O)NC(C)c1ccccc1 (centres undefined)
[2]
  IC50: 20.3 µM (not active)
[3]
  EC50: > 112 µM (not active)
[4]
  EC50: > 112 µM (not active)
[5]
  IC50: 10.4 µM (not active)
[6]
  IC50: 7.48 µM (active)
H9c2
  IC50: 35.8 µM (inactive)

## CC(C)(C)c1nc2ccccc2c(=O)n1N1C(=O)c2ccccc2C1=O
Aspartyl aminopeptidase
  IC50: > 73.5 µM (not active)
Aminopeptidase N
  IC50: 16.1 µM (active)
Procathepsin L
  IC50: > 59.6 µM (not active)

## Oc1cc(CSc2nnnn2-c2ccccc2)nc(Nc2ccc(F)cc2)n1
[1]
  IC50: 38.2 µM (active)

## Cn1c(O)cc(=O)nc1SCC(=O)Nc1cccc2ccccc12
Leucine aminopeptidase
  IC50: 7.59 µM (active)
Aspartyl aminopeptidase
  IC50: > 73.5 µM (not active)
[7]
  EC50: > 150 µM (not active)
Streptokinase A
  EC50: > 150 µM (not active)
Procathepsin L
  IC50: > 59.6 µM (not active)
Streptococcus
  EC50: 24.8 µM (active)

## O=c1c2ccccc2[nH]c(=S)n1CCN1CCC(=C(c2ccc(F)cc2)c2ccc(F)cc2)CC1 [DIACYLGLYCEROL KINASE INHIBITOR II]
[8]
  EC50: 3.94 µM (active)
[9]
  EC50: 4.21 µM (active)
